From PMC11951083, “Highly Specific Miniaturized Fluorescent Monoacylglycerol Lipase Probes Enable Translational Research” (Journal of the American Chemical Society, 2025)

What was measured:
[1] = molecular target: T1, AR(h) (Homo sapiens, UniProt P10275); assay: AR(h) (agonist radioligand); conditions: read-out: Inhibition AR(h) (agonist radioligand)
T1 sequence (P10275 1-920): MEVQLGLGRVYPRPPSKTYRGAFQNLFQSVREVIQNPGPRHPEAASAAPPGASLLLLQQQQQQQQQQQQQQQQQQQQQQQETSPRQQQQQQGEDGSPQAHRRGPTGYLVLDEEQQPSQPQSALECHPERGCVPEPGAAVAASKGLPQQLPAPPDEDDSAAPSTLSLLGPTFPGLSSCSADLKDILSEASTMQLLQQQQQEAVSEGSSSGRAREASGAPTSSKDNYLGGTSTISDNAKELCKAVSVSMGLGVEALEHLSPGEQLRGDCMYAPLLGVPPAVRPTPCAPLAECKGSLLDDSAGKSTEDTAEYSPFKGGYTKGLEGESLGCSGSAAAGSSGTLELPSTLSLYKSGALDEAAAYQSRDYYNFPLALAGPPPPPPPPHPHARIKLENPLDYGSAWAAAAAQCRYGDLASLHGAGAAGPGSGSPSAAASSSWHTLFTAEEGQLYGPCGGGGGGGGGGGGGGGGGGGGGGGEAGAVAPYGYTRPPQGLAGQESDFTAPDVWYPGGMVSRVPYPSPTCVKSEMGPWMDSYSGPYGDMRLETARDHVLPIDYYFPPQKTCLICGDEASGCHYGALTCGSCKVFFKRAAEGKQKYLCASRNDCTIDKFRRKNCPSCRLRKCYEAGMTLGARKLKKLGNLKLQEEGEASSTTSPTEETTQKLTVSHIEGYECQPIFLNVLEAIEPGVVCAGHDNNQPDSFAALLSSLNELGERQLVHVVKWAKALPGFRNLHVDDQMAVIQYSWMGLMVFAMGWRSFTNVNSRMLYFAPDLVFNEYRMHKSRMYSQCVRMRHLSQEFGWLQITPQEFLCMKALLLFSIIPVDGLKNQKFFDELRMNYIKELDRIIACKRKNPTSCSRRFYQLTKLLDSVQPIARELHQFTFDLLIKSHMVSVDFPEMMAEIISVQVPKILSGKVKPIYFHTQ

[2] = system: BZD (central); assay: BZD (central) (agonist radioligand); conditions: 10 µM
[3] = system: PCP; assay: PCP (antagonist radioligand); conditions: 10 µM
[4] = molecular target: T2, alpha2A (h) (Homo sapiens, UniProt P08913); assay: alpha2A (h) (antagonist radioligand); conditions: read-out: Inhibition alpha2A (h) (antagonist radioligand)
T2 sequence (P08913 1-465): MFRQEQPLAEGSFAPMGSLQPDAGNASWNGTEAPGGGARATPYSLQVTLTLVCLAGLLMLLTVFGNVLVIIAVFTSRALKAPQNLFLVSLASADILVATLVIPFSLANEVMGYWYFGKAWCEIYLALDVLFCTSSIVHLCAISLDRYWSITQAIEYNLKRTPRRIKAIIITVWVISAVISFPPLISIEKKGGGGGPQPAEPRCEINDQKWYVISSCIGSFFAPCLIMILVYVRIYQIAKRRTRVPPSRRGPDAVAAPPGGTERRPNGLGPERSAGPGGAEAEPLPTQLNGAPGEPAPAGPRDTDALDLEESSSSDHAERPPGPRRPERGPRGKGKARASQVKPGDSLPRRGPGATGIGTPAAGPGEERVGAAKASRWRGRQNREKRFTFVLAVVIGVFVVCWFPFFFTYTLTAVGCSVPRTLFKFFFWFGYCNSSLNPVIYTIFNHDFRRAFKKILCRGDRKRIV

[5] = molecular target: Estrogen ER alpha (h) (Homo sapiens, UniProt P03372); assay: Estrogen ER alpha (h) (agonist radioligand); conditions: read-out: Inhibition Estrogen ER alpha (h) (agonist radioligand)
Sequence of Estrogen ER alpha (h) (P03372 whole entry): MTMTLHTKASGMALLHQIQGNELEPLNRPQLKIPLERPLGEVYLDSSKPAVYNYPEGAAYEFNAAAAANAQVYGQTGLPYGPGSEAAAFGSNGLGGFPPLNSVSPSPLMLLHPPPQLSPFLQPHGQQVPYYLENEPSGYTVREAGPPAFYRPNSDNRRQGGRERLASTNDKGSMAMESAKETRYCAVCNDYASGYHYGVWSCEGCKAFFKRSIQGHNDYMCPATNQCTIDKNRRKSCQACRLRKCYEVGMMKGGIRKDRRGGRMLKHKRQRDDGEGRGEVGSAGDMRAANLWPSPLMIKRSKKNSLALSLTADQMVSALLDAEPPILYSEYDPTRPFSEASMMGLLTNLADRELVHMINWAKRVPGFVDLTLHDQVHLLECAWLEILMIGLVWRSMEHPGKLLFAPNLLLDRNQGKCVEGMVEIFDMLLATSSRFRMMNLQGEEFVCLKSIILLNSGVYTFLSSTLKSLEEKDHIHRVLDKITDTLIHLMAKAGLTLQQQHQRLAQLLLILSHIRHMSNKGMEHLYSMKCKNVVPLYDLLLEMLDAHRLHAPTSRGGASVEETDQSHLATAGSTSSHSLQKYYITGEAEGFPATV

[6] = molecular target: 5-HT2B (h) (Homo sapiens, UniProt P41595); assay: 5-HT2B (h) (agonist radioligand); conditions: read-out: Inhibition 5-HT2B (h) (agonist radioligand)
Sequence of 5-HT2B (h) (P41595 whole entry): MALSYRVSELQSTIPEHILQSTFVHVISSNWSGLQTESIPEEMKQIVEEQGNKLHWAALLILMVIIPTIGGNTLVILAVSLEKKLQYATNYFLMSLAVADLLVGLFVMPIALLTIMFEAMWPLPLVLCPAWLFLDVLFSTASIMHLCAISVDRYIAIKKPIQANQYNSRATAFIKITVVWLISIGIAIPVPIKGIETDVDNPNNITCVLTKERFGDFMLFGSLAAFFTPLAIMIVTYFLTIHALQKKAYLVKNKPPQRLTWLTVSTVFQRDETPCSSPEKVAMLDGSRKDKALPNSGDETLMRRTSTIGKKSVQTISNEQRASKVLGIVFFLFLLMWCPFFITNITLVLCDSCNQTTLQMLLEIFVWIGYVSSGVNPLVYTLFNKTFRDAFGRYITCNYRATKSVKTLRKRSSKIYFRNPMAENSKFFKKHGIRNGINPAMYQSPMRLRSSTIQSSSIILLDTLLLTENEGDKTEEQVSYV

[7] = molecular target: mu (MOP) (h) (Homo sapiens, UniProt P35372); assay: mu (MOP) (h) (agonist radioligand); conditions: read-out: Inhibition mu (MOP) (h) (agonist radioligand)
Sequence of mu (MOP) (h) (P35372 whole entry): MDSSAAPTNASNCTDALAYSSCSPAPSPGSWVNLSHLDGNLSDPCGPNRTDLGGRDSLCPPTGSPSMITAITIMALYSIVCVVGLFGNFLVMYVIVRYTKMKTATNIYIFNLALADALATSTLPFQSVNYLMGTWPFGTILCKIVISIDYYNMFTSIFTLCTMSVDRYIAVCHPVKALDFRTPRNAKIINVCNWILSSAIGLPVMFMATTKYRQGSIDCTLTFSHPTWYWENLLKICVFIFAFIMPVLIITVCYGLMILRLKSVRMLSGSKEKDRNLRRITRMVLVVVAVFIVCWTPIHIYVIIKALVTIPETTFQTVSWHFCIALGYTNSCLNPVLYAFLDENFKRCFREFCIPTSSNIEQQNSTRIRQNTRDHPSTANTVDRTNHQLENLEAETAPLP

[8] = molecular target: GSK3beta (h) (Homo sapiens, UniProt P49841); assay: GSK3beta (h); conditions: read-out: Inhibition GSK3beta (h)
Sequence of GSK3beta (h) (P49841 whole entry): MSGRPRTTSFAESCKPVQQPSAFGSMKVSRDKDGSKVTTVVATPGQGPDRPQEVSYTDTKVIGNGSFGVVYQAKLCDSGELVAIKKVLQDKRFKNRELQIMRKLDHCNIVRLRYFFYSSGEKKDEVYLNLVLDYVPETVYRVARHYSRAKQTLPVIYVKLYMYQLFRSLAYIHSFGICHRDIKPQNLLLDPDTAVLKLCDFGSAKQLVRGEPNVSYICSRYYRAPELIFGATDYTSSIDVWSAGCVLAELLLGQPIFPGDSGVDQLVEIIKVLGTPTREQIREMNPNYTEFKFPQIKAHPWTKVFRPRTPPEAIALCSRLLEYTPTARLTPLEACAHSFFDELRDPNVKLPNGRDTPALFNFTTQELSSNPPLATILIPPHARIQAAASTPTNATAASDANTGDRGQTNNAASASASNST

[9] = molecular target: D2S (h) (Homo sapiens, UniProt P14416); assay: D2S (h) (agonist radioligand); conditions: read-out: Inhibition D2S (h) (agonist radioligand)
Sequence of D2S (h) (P14416 1-414 isoform P14416-2): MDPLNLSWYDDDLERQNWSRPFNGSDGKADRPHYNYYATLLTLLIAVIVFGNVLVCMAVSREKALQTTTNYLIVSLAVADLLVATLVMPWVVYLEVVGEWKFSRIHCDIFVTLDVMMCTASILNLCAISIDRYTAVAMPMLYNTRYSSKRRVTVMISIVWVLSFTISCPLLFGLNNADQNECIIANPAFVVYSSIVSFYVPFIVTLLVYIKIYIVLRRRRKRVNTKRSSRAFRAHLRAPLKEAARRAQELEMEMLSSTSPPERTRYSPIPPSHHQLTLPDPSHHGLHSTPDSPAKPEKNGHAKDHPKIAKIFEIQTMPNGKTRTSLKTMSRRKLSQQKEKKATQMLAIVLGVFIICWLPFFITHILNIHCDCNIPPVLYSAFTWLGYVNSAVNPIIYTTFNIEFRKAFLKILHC

[10] = molecular target: PDE3B (h) (Homo sapiens, UniProt Q13370); assay: PDE3B (h); conditions: read-out: Inhibition PDE3B (h)
Sequence of PDE3B (h) (Q13370 whole entry): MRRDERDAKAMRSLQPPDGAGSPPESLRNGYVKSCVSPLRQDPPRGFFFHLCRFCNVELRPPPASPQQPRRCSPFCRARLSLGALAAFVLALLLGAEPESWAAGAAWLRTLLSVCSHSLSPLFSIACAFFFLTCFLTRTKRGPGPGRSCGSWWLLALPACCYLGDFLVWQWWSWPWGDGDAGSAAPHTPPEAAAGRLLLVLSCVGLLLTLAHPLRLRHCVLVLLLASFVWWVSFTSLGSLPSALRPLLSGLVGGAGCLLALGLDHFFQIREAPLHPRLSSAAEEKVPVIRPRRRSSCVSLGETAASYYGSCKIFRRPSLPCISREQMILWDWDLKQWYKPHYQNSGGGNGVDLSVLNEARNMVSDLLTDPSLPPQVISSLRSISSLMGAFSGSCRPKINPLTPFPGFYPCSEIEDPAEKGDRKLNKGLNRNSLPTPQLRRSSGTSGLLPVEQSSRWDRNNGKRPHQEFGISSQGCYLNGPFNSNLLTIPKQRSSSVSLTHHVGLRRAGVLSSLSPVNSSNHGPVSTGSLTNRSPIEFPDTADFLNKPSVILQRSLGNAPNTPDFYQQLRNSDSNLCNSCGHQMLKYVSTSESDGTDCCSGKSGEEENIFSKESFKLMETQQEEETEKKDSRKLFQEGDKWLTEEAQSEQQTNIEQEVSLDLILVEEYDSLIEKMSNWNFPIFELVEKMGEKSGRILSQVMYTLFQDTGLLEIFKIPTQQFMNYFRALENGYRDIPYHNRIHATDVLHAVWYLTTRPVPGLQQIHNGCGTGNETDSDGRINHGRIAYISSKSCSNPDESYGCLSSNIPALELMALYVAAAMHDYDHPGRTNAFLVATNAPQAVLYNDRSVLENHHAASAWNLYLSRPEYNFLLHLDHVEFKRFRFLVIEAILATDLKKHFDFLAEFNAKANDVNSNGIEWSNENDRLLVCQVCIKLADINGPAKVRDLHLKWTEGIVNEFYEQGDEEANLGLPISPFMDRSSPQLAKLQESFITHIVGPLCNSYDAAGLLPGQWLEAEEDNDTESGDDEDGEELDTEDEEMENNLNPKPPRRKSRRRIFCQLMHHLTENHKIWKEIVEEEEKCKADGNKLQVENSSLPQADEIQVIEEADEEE

[11] = molecular target: T3, PPARgamma (h) (Homo sapiens, UniProt P37231); assay: PPARgamma (h) (agonist radioligand); conditions: read-out: Inhibition PPARgamma (h) (agonist radioligand)
T3 sequence (P37231 1-505): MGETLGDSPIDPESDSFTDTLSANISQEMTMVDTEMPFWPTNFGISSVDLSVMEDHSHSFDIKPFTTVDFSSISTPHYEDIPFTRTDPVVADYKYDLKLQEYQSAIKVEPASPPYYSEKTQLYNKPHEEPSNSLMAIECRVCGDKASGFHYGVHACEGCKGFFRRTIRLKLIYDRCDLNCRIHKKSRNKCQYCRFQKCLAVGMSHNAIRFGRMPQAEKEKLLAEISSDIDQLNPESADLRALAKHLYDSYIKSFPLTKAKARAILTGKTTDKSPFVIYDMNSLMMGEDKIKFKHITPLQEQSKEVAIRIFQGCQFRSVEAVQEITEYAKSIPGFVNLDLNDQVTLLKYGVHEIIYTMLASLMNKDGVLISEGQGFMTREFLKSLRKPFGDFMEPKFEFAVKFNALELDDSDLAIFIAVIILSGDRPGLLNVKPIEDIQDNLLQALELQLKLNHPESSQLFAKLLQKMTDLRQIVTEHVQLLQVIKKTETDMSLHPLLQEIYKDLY

[12] = molecular target: kappa (h) (KOP) (Homo sapiens, UniProt P41145); assay: kappa (h) (KOP) (agonist radioligand); conditions: read-out: Inhibition kappa (h) (KOP) (agonist radioligand)
Sequence of kappa (h) (KOP) (P41145 whole entry): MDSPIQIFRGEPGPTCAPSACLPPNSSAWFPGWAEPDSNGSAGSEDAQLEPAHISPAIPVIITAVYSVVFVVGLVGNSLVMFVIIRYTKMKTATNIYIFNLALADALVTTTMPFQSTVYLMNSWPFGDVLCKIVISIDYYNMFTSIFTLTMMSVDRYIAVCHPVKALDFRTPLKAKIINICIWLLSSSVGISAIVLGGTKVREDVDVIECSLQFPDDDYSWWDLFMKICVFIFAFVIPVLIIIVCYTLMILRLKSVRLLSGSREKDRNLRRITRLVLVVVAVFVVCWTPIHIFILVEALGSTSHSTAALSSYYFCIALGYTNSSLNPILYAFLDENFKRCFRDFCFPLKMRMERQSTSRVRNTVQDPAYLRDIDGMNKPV

[13] = system: Cl- channel (GABA-gated); assay: Cl- channel (GABA-gated) (antagonist radioligand); conditions: 10 µM
[14] = molecular target: MMP-9 (h) (Homo sapiens, UniProt P14780); assay: MMP-9 (h); conditions: read-out: Inhibition MMP-9 (h)
Sequence of MMP-9 (h) (P14780 94-707): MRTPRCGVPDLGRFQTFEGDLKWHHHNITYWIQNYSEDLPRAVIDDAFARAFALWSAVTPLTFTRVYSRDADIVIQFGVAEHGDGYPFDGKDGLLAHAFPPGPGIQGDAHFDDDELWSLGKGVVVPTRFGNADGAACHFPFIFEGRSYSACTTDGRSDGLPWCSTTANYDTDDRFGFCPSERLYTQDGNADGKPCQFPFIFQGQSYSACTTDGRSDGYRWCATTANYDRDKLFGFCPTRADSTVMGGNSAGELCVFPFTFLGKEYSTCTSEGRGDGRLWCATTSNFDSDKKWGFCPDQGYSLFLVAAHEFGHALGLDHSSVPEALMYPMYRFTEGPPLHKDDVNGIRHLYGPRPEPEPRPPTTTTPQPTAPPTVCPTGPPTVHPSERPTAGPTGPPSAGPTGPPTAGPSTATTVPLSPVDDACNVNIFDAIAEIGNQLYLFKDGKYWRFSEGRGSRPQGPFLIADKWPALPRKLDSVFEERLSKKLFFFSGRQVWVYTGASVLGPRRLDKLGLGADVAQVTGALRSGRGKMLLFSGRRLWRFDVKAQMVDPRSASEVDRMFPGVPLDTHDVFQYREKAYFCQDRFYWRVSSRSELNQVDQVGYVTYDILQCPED

O=C(O[C@H](CO)C(F)(F)F)N1CC2(CC(CC3=C4C=CC=[N+]4[B-](F)(F)n4cccc43)C2)C1 [Compound 1]
inhibition at 10 µM [1]: -14.2% | Inhibition BZD (central) (agonist radioligand) [2]: -11,90% | Inhibition PCP (antagonist radioligand) [3]: 6,90% | inhibition at 10 µM [4]: 11.7% | inhibition at 10 µM [5]: 17.8% | inhibition at 10 µM [6]: 28.3% | inhibition at 10 µM [7]: 4% | inhibition at 10 µM [8]: 3.2% | inhibition at 10 µM [9]: 5.9% | inhibition at 10 µM [10]: 15.9% | inhibition at 10 µM [11]: 74.3% | inhibition at 10 µM [12]: 7.8% | Inhibition Cl- channel (GABA-gated) (antagonist radioligand) [13]: 41,90%

O=C(OC(C(F)(F)F)C(F)(F)F)N1CC2(CC(CC3=C4C=CC=[N+]4[B-](F)(F)n4cccc43)C2)C1 [Compound 2]
inhibition at 10 µM [1]: 4.2% | Inhibition BZD (central) (agonist radioligand) [2]: -27,70% | Inhibition PCP (antagonist radioligand) [3]: -5,50% | inhibition at 10 µM [4]: -2.2% | inhibition at 10 µM [5]: -0.8% | inhibition at 10 µM [6]: 4.1% | inhibition at 10 µM [7]: -0.4% | inhibition at 10 µM [14]: 4.5% | inhibition at 10 µM [8]: -1.7% | inhibition at 10 µM [9]: -4.1% | inhibition at 10 µM [10]: 6.3% | inhibition at 10 µM [11]: 56.3% | inhibition at 10 µM [12]: 5.9% | Inhibition Cl- channel (GABA-gated) (antagonist radioligand) [13]: 51,90%

O=C(OC(C(F)(F)F)C(F)(F)F)N1CC2(CC(CC3=C4C=CC(c5ccc[nH]5)=[N+]4[B-](F)(F)n4cccc43)C2)C1 [Compound 2a]
inhibition at 10 µM [1]: 6% | Inhibition BZD (central) (agonist radioligand) [2]: 0,90% | Inhibition PCP (antagonist radioligand) [3]: -18,80% | inhibition at 10 µM [4]: -0.9% | inhibition at 10 µM [5]: -13.7% | inhibition at 10 µM [6]: 20.8% | inhibition at 10 µM [7]: 7.6% | inhibition at 10 µM [14]: 9.7% | inhibition at 10 µM [8]: -1.5% | inhibition at 10 µM [9]: -2.6% | inhibition at 10 µM [10]: 12.6% | inhibition at 10 µM [11]: 20% | inhibition at 10 µM [12]: 4.9% | Inhibition Cl- channel (GABA-gated) (antagonist radioligand) [13]: 40,80%

O=C1CO[C@H]2CCN(C(=O)N3CC4(CC(CC5=C6C=CC(c7ccc[nH]7)=[N+]6[B-](F)(F)n6cccc65)C4)C3)C[C@H]2N1 [Compound 4a]
inhibition at 10 µM [1]: -1.4% | Inhibition BZD (central) (agonist radioligand) [2]: -4,10% | Inhibition PCP (antagonist radioligand) [3]: 3,60% | inhibition at 10 µM [4]: 7.4% | inhibition at 10 µM [5]: -2.5% | inhibition at 10 µM [6]: 30.3% | inhibition at 10 µM [7]: 11% | inhibition at 10 µM [14]: 47% | inhibition at 10 µM [8]: -15% | inhibition at 10 µM [9]: 3.3% | inhibition at 10 µM [10]: 13% | inhibition at 10 µM [11]: 20% | inhibition at 10 µM [12]: 22.7% | Inhibition Cl- channel (GABA-gated) (antagonist radioligand) [13]: 40,30%

O=C(N1CC2(CC(CC3=C4C=CC=[N+]4[B-](F)(F)n4cccc43)C2)C1)N1CC2(CC(n3cnc(C4CC4)n3)C2)C1 [Compound 5]
inhibition at 10 µM [1]: -19.8% | Inhibition BZD (central) (agonist radioligand) [2]: -16,30% | Inhibition PCP (antagonist radioligand) [3]: -14,20% | inhibition at 10 µM [4]: -8.9% | inhibition at 10 µM [5]: 35% | inhibition at 10 µM [6]: 0.1% | inhibition at 10 µM [7]: 8.5% | inhibition at 10 µM [14]: 16.8% | inhibition at 10 µM [8]: -1.2% | inhibition at 10 µM [9]: 12.6% | inhibition at 10 µM [10]: 10.7% | inhibition at 10 µM [11]: 5.6% | inhibition at 10 µM [12]: 10.3% | Inhibition Cl- channel (GABA-gated) (antagonist radioligand) [13]: 20,90%
